Source: patent publication US12611470B2, “Chromatin-opening element for stable long term gene expression” (CZ Biohub SF, LLC, priority 2019, dated 2026)

B1: EF1a promoter: Elongation Factor 1 promoter, positive control for promoter activity (nucleic acid)
DNA: AATGTAGTCTTATGCAATACTCTTGTAGTCTTGCAACATGGTAACGATGAGTTAGCAACATGCCTTACAAGGAGAGAAAAAGCACCGTGCATGCCGATTGGTGGAAGTAAGGTGGTACGATCGTGCCTTATTAGGAAGGCAACAGACGGGTCTGACATGGATTGGACGAACCACTGAATTCCGCATTGCAGAGATATTGTATTTAAGTGCCTAGCTCGATACAATAAACGCCATTTGACCATTCACCACATTGGTGTGCACC
modifications: Rous sarcoma virus

Assays:
Transduced P19 cells = assay: Epigenetic effector experiments: rescue of GFP expression in silenced transduced cells; format: cell-based, mouse; settings: for reactivation of GFP expression: all examined populations, range of concentrations; for silenced cells rescued: RSV promoter-only construct, 24 h treatment
Protocol: (§1) GFP expression is rescued by treatment with DNA methylation inhibitor 5-aza-cytidine (5-aza) in day 18 UCOE-RSV cells from the lentiviral silencing experiment. Cells were replica plated at day 16, specified concentrations of 5-aza were introduced 24 hours later (with exception of control), and cells were passaged and assayed via flow cytometry 24 hours after chemical introduction for % GFP+ cells. Data is reported as mean±SD from three biological replicates.
as §1, with “HDAC” for “DNA methylation”, “trichostatin A (TSA)” for “5-aza-cytidine (5-aza)”, “24” for “18”, “22,” for “16,”, “TSA” for “5-aza”, “mean f SD” for “mean±SD”
Cells were replica plated at day 16, specified concentrations of 5-aza were introduced 24 hours later (with exception of control), and cells were passaged and assayed via flow cytometry 24 hours after chemical introduction for % GFP+ cells. Data is reported as mean±SD from three biological replicates. In the graph, data is shown from left to right for each construct: no treatment, 2 μM 5-aza, 10 μM 5-aza. […] Cells were replica plated at day 22, specified concentrations of TSA were introduced 24 hours later (with exception of control), and cells were passaged and assayed via flow cytometry 24 hours after chemical introduction for % GFP+ cells. Data is reported as mean f SD from three biological replicates. In the graph, data is shown from left to right for each construct: no treatment, 0.05 μM TSA, 0.1 μM TSA. […] Cells were replica plated at day 19, treated with 0.1 μM TSA or 10 μM 5-aza (with exception of control) 24 hours later, and cells were passaged and assayed via flow cytometry 24 hours after chemical introduction for % GFP+ cells. Data is reported as mean f SD from three biological replicates. In the graphs for FIG. 6C and FIG. 6D, the data is shown from left to right for each construct: no treatment, 0.1 μM TSA, 10 μM 5-aza.
Replica-plated cell populations were treated with varying concentrations of 5-aza-2′-deoxycytidine (Sigma-Aldrich, A3656) or Trichostatin A (Sigma-Aldrich, T1952) 24 hours after passaging. TSA was purchased as a readymade 5 mM solution in DMSO, which was then diluted to a 0.05 μM or 0.1 μM concentration in P19 growth media. 5 mg of 5-aza-2′-deoxycytidine was dissolved in 1 mL of 1:1 acetic acid: water to make a 21.9 mM stock solution, which was then diluted in P19 growth media to 2 μM or 10 μM. Cells were assayed through flow cytometry after 24 hours. […]

P19 cells = assay: Standalone (intrinsic) promoter activity screen, UCOE-GFP construct lacking the Ef1a promoter; format: cell-based, mouse; settings: promoterless GFP construct, after two weeks of antibiotic selection
Text: A schematic representation of the expression construct in which the candidate region (UCOE) is inserted upstream of the GFP gene in the absence of any other promoter sequences as used is shown as an inlay. As positive controls, the Ef1α promoter, the 2.2 kB A2UCOE sequence, and the 1.2 kB reverse orientation sequence 3′UCOE, were cloned into the same reporter construct as the candidate sequences. The percent GFP positive in the population was monitored as a metric for gene expression by flow cytometry analysis with each passage (% GFP). Stably transfected cells were assayed for % GFP+ and median fluorescent intensity (normalized to Ef1a promoter control). Data is reported as mean±SD from biological duplicates.
P19 cells were seeded at 25,000 cells/well in 12 well plates. 24 h after seeding, cells were transfected using Lipofectamine™ 2000 transfection reagent (Thermo Fisher) according to the manufacturer's instructions using 500 ng DNA/well and 2.5 μL of Lipofectamine per well. 24 hours after transfection, selection was initiated with 1 μg/mL puromycin (Sigma-Aldrich) in regular growth media and, from then on, cells were passaged at 1:15 or 1:20 dilutions whenever cells were 80-90% confluent (every 2-3 days) with frequent refreshing of puromycin-containing media to clear dead cells. After approximately 14-16 days, remaining cells were assumed to be stably transfected and were changed to regular growth media to initiate silencing experiments. During silencing experiments, the P19 cells were passaged every 2-3 days and re-seeded at 15,000 cells/well.
Fluorescence data throughout silencing experiments was obtained using a MACSQuant® VYB flow cytometer (Miltenyi Biotec). EGFP was measured through the 488-nm laser and 525/50 nm band pass filter. Flow cytometry data was analyzed using the FlowJo™ single cell flow cytometry analysis software (Tree Star). After being gated for singlets and viability, GFP+ gates in FlowJo were drawn such that a non-transfected or non-transduced P19 cell population was at 1% GFP+. Median values reported are of cells within the GFP+ gate, both % GFP positive and median are reported with the standard deviation of biological replicates.
As A2UOCE dually functions as a protective regulatory element and a universal promoter, the candidate UCOEs were further screened for standalone promoter activity. A similar experiment as the aforementioned screen was performed using a similar expression construct that lacked the Ef1a promoter. This construct was used to assess whether the candidate sequences could drive reporter expression and act as stand-alone functional promoters. Candidates were compared to the positive control of the EF1a promoter, which had ˜70% GFP+ cells after two weeks of antibiotic selection, showing a distinct positive population in the fluorescence histogram. The GFP+ gate (i.e., flow cytometry fluorescence threshold for GFP+ cells) was set to encompass 1% of untransfected cells and then applied to all samples. […] Such a result appears as a bimodal distribution on a histogram, with a peak below the gate threshold (i.e., GFP negative cell population) and a peak above it (i.e., the distinct GFP positive population mentioned above). […] In this study, a % GFP+ of at least 50% is considered to reflect the existence of a second population in the histograms, and thus a binary indicator of promoter function. […] The median GFP intensity of the GFP+ population was used a measure of the strength of the promoter, and normalized to the Ef1a positive control as shown in FIG. 2C.
This aligns with previous observations that the RNPA2B1 promoter is much stronger than that of CBX3 (Zhang, F., et al. (2010) Mol Ther, 18, 1640-1649 (7)). However, the RNPA2B1 promoter in A2UCOE is only 30% as strong as the EF1α promoter. […]

Molecule	reactivation of GFP expression (Transduced P19 cells)	silenced cells rescued (Transduced P19 cells; highest dose of 5-aza, day 18 cells) [%]	silenced cells rescued (Transduced P19 cells; highest dose of TSA, day 24 cells)	% GFP+ cells (P19 cells) [%]	% GFP+ cells, representative flow cytometry example (P19 cells; one representative example) [%]
Nc1ncn([C@@H]2O[C@H](CO)[C@@H](O)[C@H]2O)c(=O)n1 [Candidate 5-aza, 5-azacytidine]	dose-dependent increase in % GFP positive cells	63			
CC(/C=C/C(=O)NO)=C\[C@@H](C)C(=O)c1ccc(N(C)C)cc1 [TSA, trichostatin A]	dose-dependent recovery of GFP expression		about 25%		
B1				~70	74.2
